Like-named read-outs stand apart in the source and are kept apart here.
Key:
[1] = system: liver constructs (bioprinted liver organoids); assay: On-chip liver construct urea secretion (colorimetric assay); format: cell-based, human
Description: (§1) Liver construct synthetic functionality, response to acetaminophen insult, and intervention with N-acetyl-L-cysteine. To assess the response of the liver organoid system to toxic drug insult, acetaminophen was employed. Liver organoids were cultured in microreactors as described before for 14 days. Media samples were collected on days 3, 6, 10, and 14. After media collection on day 6, 1 set of organoids continued with normal media, 1 set of organoids were treated with 1 mM APAP, and 1 set of organoids were treated with 10 mM APAP. To assess the effectiveness of a countermeasure treatment to be used in the liver organoid system, N-acetyl-L-cysteine was explored as a clinically relevant treatment against APAP-induced toxicity. This final set of organoids was treated with 10 mM APAP and 20 mM N-acetyl-L-cysteine. During media changes, groups receiving the drug treatment received fresh HCM also containing the appropriate drug concentration.
(§2) For assessment of liver organoid albumin and urea secretion under baseline conditions as well as during exposure to APAP, collected media aliquots were analyzed using a Human Albumin ELISA assay (Alpha Diagnostic International) and the amount of secreted urea in the collected media was determined using a Urea colorimetric assay (BioAssay Systems). For viability assessment, organoids were removed immediately after the final media collection time point (day 14) for staining by LIVE/DEAD viability/cytotoxicity kits (Life Technologies). Staining consisted of incubation in 2 uM calcein AM (stains live cells green) and 4 uM EthD-1 (stains dead cells red) in a 1:1 PBS:HCM solution. […] Additionally, media samples were analyzed for presence of lactate dehydrogenase (LDH), an enzyme that is released from cells after toxicity causes cell membrane rupture, using a Lactate Dehydrogenase Assay Kit (Abcam), and for α-GST, a hepatocyte-specific enzyme also released from cells after exposure to toxicity, using an α-GST Assay Kit (Oxford Biomedical Research).

[2] = system: liver constructs (bioprinted liver organoids); assay: On-chip liver construct lactate dehydrogenase release into media; format: cell-based, human; conditions: for LDH concentration in the media: day 10
[3] = system: liver constructs (bioprinted liver organoids); assay: On-chip liver construct viability by LIVE/DEAD staining after APAP / NAC; format: cell-based; conditions: day 14
Description: as §1, §2

[4] = system: liver constructs (bioprinted liver organoids); assay: On-chip liver construct albumin secretion (Human Albumin ELISA); format: cell-based; conditions: for albumin levels vs 0 mM control: administered after day 6
Description: as §1
For assessment of liver organoid albumin and urea secretion under baseline conditions as well as during exposure to APAP, collected media aliquots were analyzed using a Human Albumin ELISA assay (Alpha Diagnostic International) and the amount of secreted urea in the collected media was determined using a Urea colorimetric assay (BioAssay Systems). For viability assessment, organoids were removed immediately after the final media collection time point (day 14) for staining by LIVE/DEAD viability/cytotoxicity kits (Life Technologies). Staining consisted of incubation in 2 uM calcein AM (stains live cells green) and 4 uM EthD-1 (stains dead cells red) in a 1:1 PBS:HCM solution. Following staining, organoids were washed in PBS, fixed in 4% PFA, transferred to PBS, and imaged using macro-confocal microscopy (Leica TCS LSI). Additionally, media samples were analyzed for presence of lactate dehydrogenase (LDH), an enzyme that is released from cells after toxicity causes cell membrane rupture, using a Lactate Dehydrogenase Assay Kit (Abcam), and for α-GST, a hepatocyte-specific enzyme also released from cells after exposure to toxicity, using an α-GST Assay Kit (Oxford Biomedical Research).

[5] = system: cardiac organoids; assay: Cardiac organoid beating rate response to drugs (onboard camera / microscope); format: cell-based, human
From the text: Cardiac construct baseline function monitoring and beat rate response to drugs. […] First the cover of the webcam is disassembled to retrieve the CMOS sensor. The lens of the webcam is then detached from its initial location, flipped, and integrated back to the holder to convert it into a magnifying lens. A base was then constructed for the mini-microscope to fit onto the bottom of the bioreactors. The base consisted of a dual-layer structure of PMMA sheets (⅛″ Thick, 12″×12″, McMaster 8505K11) cut into the dimensions of the bioreactors using a laser cutter (VLS 2.30 Desktop Laser System, Universal Laser Systems). Using 4 sets of screw/bolts, the CMOS module was tightly clamped in between a pair of PMMA structures. Additional 4 sets of screw/bolts were further mounted at the corners of the structures to function as the focus knobs. Only very minor alteration to the bioreactor itself was needed, i.e., 4 extra holes were drilled on the lower PMMA board to fit the imager at the bottom. During culture of cardiac constructs, videos were captured to analyze cardiac organoid beating rates. Video files were analyzed using custom written MatLab code with a series of MatLab functions. The software created a reference frame, based on the first frame of the video, and compared pixels in each subsequent frame, determining which pixels represented movement over time. The moving pixels in each frame were then used to generate a black and white pixilated representation of beat behavior, allowing visualization of beat propagation, and generation a plot showing the number of moving pixels versus time, allowing determination of beating rates.

[6] = system: liver constructs (bioprinted liver organoids); assay: On-chip liver construct alpha-GST release into media; format: cell-based, human; conditions: 10 mM APAP + 20 mM NAC
Description: Liver construct synthetic functionality, response to acetaminophen insult, and intervention with N-acetyl-L-cysteine. To assess the response of the liver organoid system to toxic drug insult, acetaminophen was employed. Liver organoids were cultured in microreactors as described before for 14 days. Media samples were collected on days 3, 6, 10, and 14. After media collection on day 6, 1 set of organoids continued with normal media, 1 set of organoids were treated with 1 mM APAP, and 1 set of organoids were treated with 10 mM APAP. […]
as §2, with “Systems).” for “Systems). For viability assessment, organoids were removed immediately after the final media collection time point (day 14) for staining by LIVE/DEAD viability/cytotoxicity kits (Life Technologies). Staining consisted of incubation in 2 uM calcein AM (stains live cells green) and 4 uM EthD-1 (stains dead cells red) in a 1:1 PBS:HCM solution.”

[7] = system: bioprinted cardiac tissue constructs (rat neonatal cardiomyocytes); assay: Bioprinted rat cardiac tissue constructs, response to cardiac drugs; format: cell-based
From the text: In this study, 3D bioprinting was applied to fabricate functional and contractile cardiac tissue constructs. Rat neonatal heart tissues were obtained to isolate cardiomyocytes, and the cells were suspended in a fibrin-based hydrogel bioink. Cell-laden hydrogel was printed through a 300-micron nozzle by pneumatic pressure. […] Moreover, tissue development of the printed cardiac tissue could accelerate by Notch signal blockade.

[8] = system: cardiac organoids; conditions: for increase in beating rate: 0.5 μM
Description: Integrated organoid system and integrated response to drugs. To evaluate how the combination of both organoid types together impact drug response, epinephrine and propranolol were tested independently and jointly. In the independent scenario, organoid platforms were prepared in two groups: Group 1 consisted of a set of organoids comprised only of cardiac, with “blank” liver modules. Group 2 consisted of both cardiac and liver. However, it should be noted that cardiac and liver constructs were kept separate for the incubation period, while the drug was administered to the liver construct or “blank” liver module, after which the modules were joined for 30 minutes prior to cardiac beating rate assessment. Baseline cardiac organoid beating rates were determined in each group prior to drug administration. Then, the drugs—either 0.1 μM propranolol or 0.5 μM epinephrine—were administered, allowed to incubate for 1 hour, after which the modules were joined, and data was collected.

[9] = system: cardiac organoids
Description: To test the integrated response of the liver and cardiac system to epinephrine and propranolol combinations, the experimental groups described above were prepared and the same protocol (individual unit incubation prior to joining of modules) was followed. However, the incubation period was lengthened to overnight (18 hours). Both Group 1 and Group 2 were administered 0.1 uM propranolol. After the incubation period, the modules were joined and 0.5 uM epinephrine was be administered to both groups. Additionally, in parallel, a Group 3 condition was employed, which mirrored Group 2, but used a 2D hepatocyte culture (1-2 million cells/well) instead of the liver construct as a 2D comparison.

[10] = system: liver organoids; assay: Phospholipid accumulation, HCS LipidTox Phospholipidosis Detection Stain; format: cell-based, human; conditions: 48 hour treatment, even with lower concentrations
Description: Accumulation of phospholipids within the organoids was imaged using the HCS LipidTox Phospholipidosis Detection Stain (Invitrogen). LipidTox reagent was added to medium at the same time as the troglitazone at a ratio of 1:500. Following 48 hour drug treatment, organoids were fixed in 4% paraformaldehyde (Sigma Aldrich), washed in PBS, and then transferred to a depression glass slide (Erie Scientific) for imaging using TCS LSI macro confocal with 5× macro objective (Leica).

[11] = system: liver organoids; assay: Troglitazone toxicity, organoid viability by CellTiter-Glo ATP assay; format: cell-based, human; conditions: liver organoids treated for 48 hours
Description: Organoid viability assays. Organoid viability was assessed by ATP production as a measure of metabolic activity as detailed in the following white paper^1. CellTiter-Glo assay (Promega) was used to measure ATP by transferring one organoid/well to a black, opaque 96-well plate (Corning). Blanks were included using HCM medium (Lonza) at 80 μl/well. 80 μl of prepared CellTiter-Glo buffer was added per well and plate was placed on shaker for 5 minutes to lyse cells, then further incubated for 15 minutes protected from light. Plate was read using plate reader (SpectraMax M5, Molecular Devices) with an integration time of 0.5 see/well. Sample time points were compared via two-sample unequal variance t-test. Live/dead stain was also used to assess viability. Organoids were washed in PBS and then stained with live/dead viability/cytotoxicity kit (Life Technologies): 2 μL/mL ethidium homodimer-1 and 0.5 μL/mL calcein AM (diluted in PBS) for 45 minutes at room temperature, protected from light. Organoids were transferred to a depression glass slide (Erie Scientific) and then imaged using TCS LSI macro confocal microscope with 5× macro objective (Leica).
Troglitazone toxicity. […] Organoid viability was measured using the CellTiter-Glo assay (Promega) as recorded as previously described.

## CC(=O)Nc1ccc(O)cc1 [APAP, acetaminophen]
[1]; 1 mM and 10 mM APAP, after administration
  urea levels: drop in a dose dependent manner
[2]; 10 mM APAP
  LDH concentration in the media: clear increase in LDH concentration
[2]; 10 mM APAP, day 14
  LDH levels: drop down to baseline
[3]; 1 mM APAP
  viability (ratio of live to dead cells, LIVE/DEAD): 30-50%
[3]; 10 mM APAP
  viability (LIVE/DEAD): few viable cells
[4]; 1 mM APAP
  albumin levels vs 0 mM control: significantly decreased
[4]; 10 mM APAP
  albumin levels vs 0 mM control: significantly decreased
[4]; 10 mM APAP, day 14
  albumin levels: nearly immeasurable

## CC(C)NCC(O)c1ccc(O)c(O)c1 (stereo not drawn) [Isoproterenol]
[5]; 0.1 mM
  organoid beating rate: increased organoid beating rate

## CC(=O)N[C@@H](CS)C(=O)O [NAC, N-acetyl-L-cysteine]
[1]; 10 mM APAP + 20 mM NAC
  urea levels vs 10 mM APAP: significantly greater than the 10 mM APAP urea levels
  urea levels vs control organoids: not significantly different than the control organoids
[2]; 10 mM APAP + 20 mM NAC
  LDH concentration in the media: almost identical to the control group
[3]; 10 mM APAP + 20 mM NAC
  viability (LIVE/DEAD), rescue from APAP: reduced the level of morbidity
[6]; day 10
  alpha-GST in media: about 6 ng/mL
[6]; day 14
  alpha-GST in media: ~5 ng/mL
[4]; 10 mM APAP + 20 mM NAC
  albumin levels vs 10 mM APAP group: significantly greater than those of the 10 mM APAP treated group

## C[N+](C)(C)CCOC(N)=O [carbachol]
[7]
  physiological responses (beating frequency and contraction forces): showed physiological responses

## CNC[C@H](O)c1ccc(O)c(O)c1 [epinephrine]
[7]
  physiological responses (beating frequency and contraction forces): showed physiological responses
[5]
  concentration at which beating rate plateau is reached: ≥ 5 µM
[5]; 0, 0.1, 0.5, 5 and 50 uM
  organoid beating rate, dose response: increased in a dose-dependent manner
[8]; cardiac-only system
  increase in beating rate: approximately 40%
[8]; with liver component
  increase in beating rate: ~30%
[9]; 0.5 μM epinephrine after 0.1 μM propranolol, 2D hepatocyte culture instead of liver construct
  restoration of the epinephrine-induced increase in beat rate: failed achieve any restoration
[9]; 0.5 μM epinephrine after 0.1 μM propranolol, Group 2, liver component added
  increase in BPM: 1.25 fold
[9]; 0.5 μM epinephrine after 0.1 μM propranolol, Group 2 with 3D liver organoids
  response relative to control epinephrine-only response: approximately 50%
[9]; 0.5 μM epinephrine, controls with no propranolol
  increase in cardiac BPM: 1.5 fold

## CC(C)NCC(O)COc1cccc2ccccc12 (stereo not drawn) [propranolol]
[5]; 0, 0.5, 5, 20 uM propranolol for 20 minutes, then 5 uM epinephrine
  prevention of epinephrine-induced increase in beating rate: more effectively prevented epinephrine-induced increases in beating rates
[8]; 0.1 μM, cardiac-only system
  decrease in beating rate: ~10%
[8]; 0.1 μM, in the presence of the liver construct
  change in beating rate: no decrease in beating rate
[9]; 0.1 μM propranolol, Group 1, no liver organoids
  block of beta-adrenergic effects of 0.5 μM epinephrine: successfully blocked

## C=C[C@H]1C[N@@]2CC[C@H]1C[C@@H]2[C@@H](O)c1ccnc2ccc(OC)cc12 [quinidine]
[5]; 1 μM
  organoid beating rate: slowed organoid beating rate

## Cc1c(C)c2c(c(C)c1O)CCC(C)(COc1ccc(CC3SC(=O)NC3=O)cc1)O2 (stereo not drawn) [troglitazone]
[10]
  phospholipid accumulation: Considerable phospholipid accumulation
[11]
  viability (ATP quantification), dose-response: decrease in viability as concentration of drug is increased

From patent publication US20240240150A1, “SPONTANEOUSLY BEATING CARDIAC ORGANOID CONSTRUCTS AND INTEGRATED BODY-ON-CHIP APPARATUS CONTAINING THE SAME” (Wake Forest University Health Sciences, priority 2015, published 2024)
